Reference: patent US20230271954A1 (Gossamer Bio Services, Inc., priority 2020, published 2023)

Assays:
[1] = target: DGKα (Homo sapiens, UniProt P23743); assay: DGKα biochemical assay (ADP-Glo); details: read-out: DGK α IC50
In short: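 ADP-Glo kinase assay using OAG/PS (1:2) lipid substrate, sonicated, in HEPES pH 7.0 buffer with MgCl2, CaCl2, DTT, BSA, Triton X-100. Enzyme preincubated with compound 30 min at RT; substrate with ATP (DGKα: 400 μM) added, 45 min RT. Luminescence read; % inhibition vs DMSO and no-enzyme controls.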

[2] = target: T1, DGKζ (Homo sapiens, UniProt Q13574); assay: DGKζ biochemical assay (ADP-Glo); details: read-out: DGK ζ IC50
T1 construct: purchased Carna 12-110
T1 sequence (Q13574 1-929 isoform Q13574-4): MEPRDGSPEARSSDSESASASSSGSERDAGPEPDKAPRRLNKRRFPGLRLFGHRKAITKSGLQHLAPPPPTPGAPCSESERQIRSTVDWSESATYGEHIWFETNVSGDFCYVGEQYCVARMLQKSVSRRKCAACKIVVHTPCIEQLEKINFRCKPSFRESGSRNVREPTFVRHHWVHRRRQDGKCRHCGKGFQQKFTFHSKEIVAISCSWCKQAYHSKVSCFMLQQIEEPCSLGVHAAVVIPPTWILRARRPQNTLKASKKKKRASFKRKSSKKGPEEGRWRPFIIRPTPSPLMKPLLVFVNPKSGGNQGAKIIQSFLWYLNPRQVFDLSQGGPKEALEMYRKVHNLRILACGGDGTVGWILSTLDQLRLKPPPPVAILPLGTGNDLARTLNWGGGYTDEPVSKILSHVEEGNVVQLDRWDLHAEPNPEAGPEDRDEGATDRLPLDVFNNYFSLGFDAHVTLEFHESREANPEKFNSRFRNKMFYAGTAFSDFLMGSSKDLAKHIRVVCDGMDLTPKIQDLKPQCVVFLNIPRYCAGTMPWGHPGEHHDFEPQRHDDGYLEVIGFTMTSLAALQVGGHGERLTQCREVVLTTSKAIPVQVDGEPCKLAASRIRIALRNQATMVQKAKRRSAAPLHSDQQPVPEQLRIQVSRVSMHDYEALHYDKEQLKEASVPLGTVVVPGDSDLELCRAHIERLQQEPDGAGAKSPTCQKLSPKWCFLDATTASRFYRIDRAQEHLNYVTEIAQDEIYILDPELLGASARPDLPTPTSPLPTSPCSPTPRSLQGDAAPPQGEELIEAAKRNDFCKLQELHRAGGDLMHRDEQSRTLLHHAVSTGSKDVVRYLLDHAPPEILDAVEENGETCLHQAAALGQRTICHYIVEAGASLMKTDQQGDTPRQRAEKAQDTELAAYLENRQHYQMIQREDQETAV

Sequence of DGKα (P23743 whole entry): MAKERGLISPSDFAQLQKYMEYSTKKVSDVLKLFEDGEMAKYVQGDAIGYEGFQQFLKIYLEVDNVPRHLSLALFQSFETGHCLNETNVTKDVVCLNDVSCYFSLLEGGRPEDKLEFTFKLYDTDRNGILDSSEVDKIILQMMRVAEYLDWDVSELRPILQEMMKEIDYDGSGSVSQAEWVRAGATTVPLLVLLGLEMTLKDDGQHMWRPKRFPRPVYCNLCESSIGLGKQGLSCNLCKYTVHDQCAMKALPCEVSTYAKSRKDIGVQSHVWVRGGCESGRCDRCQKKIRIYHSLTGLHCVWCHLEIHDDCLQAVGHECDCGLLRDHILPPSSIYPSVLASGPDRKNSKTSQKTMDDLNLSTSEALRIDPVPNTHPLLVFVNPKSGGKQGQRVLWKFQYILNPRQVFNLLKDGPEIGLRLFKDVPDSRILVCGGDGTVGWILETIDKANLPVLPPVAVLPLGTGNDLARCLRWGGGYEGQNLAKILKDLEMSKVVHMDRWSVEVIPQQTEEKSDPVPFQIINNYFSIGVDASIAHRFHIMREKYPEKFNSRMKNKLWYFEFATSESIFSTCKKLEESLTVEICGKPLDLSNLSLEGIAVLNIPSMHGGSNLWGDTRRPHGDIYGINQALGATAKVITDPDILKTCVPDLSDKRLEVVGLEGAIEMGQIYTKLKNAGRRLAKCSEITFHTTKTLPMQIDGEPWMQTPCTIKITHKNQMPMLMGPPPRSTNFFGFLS

| SMILES | IC50 [1] [nM] | IC50 [2] [nM] |
| --- | --- | --- |
| Cn1c(=O)c(C#N)c(N(C)[C@H]2CC[C@@H](N(CC3CCC3)c3ccc4c(c3)OCO4)CC2)c2nc(C#N)ccc21 [Example 97] | < 10 | 10 to 100 |
| COc1cc(N(CC2CC2)[C@H]2CC[C@@H](N(C)c3c(C#N)c(=O)n(C)c4ccc(Cl)nc34)CC2)cc(F)c1F [Example 98] | 100 to 1000 | 100 to 1000 |
| Cc1ccc(N(CC2CCC2)[C@H]2CC[C@@H](N(C)c3c(C#N)c(=O)n(C)c4ccc(C#N)nc34)CC2)cc1 [Example 99] | < 10 | 10 to 100 |
| Cc1ccc(N(CC2CCC2)[C@H]2CC[C@@H](N(C)c3cc(=O)n(C)c4ccc(C#N)nc34)CC2)cc1 [Example 100] | < 10 | ≥ 1000 |
| COc1cc(N(CC2CC2)[C@H]2CC[C@@H](N(C)c3c(C#N)c(=O)n(C)c4ccc(C#N)nc34)CC2)cc(OC)c1F [Example 101] | ≥ 1000 | 10 to 100 |
| Cn1c(=O)c(C#N)c(N(C)[C@H]2CC[C@H](N(CC3CC3)c3cccnc3)CC2)c2nc(C#N)ccc21 [Example 103, trans-8-((4-((cyclopropylmethyl)(pyridin-3-yl)amino)cyclohexyl)(methyl)amino)-5-methyl-6-oxo-5,6-dihydro-1,5-naphthyridine-2,7-dicarbonitrile] | ≥ 1000 | ≥ 1000 |
| Cc1cc(F)ccc1N(CC1CCC1)[C@H]1CC[C@H](N(C)c2c(C#N)c(=O)n(C)c3ccc(Cl)nc23)CC1 [Example 104, trans-6-chloro-4-((4-((cyclobutylmethyl)(4-fluoro-2-methylphenyl)amino)cyclohexyl)(methyl)amino)-1-methyl-2-oxo-1,2-dihydro-1,5-naphthyridine-3-carbonitrile] | ≥ 1000 | ≥ 1000 |
| Cc1c(F)cccc1N(CC1CC1)[C@H]1CC[C@H](N(C)c2c(C#N)c(=O)n(C)c3ccc(Cl)nc23)CC1 [Example 105, trans-6-chloro-4-((4-((cyclopropylmethyl)(3-fluoro-2-methylphenyl)amino)cyclohexyl)(methyl)amino)-1-methyl-2-oxo-1,2-dihydro-1,5-naphthyridine-3-carbonitrile] | ≥ 1000 | 100 to 1000 |
| Cc1cc(F)ccc1N(CC1CCC1)[C@H]1CC[C@H](N(C)c2c(C#N)c(=O)n(C)c3ccc(C#N)nc23)CC1 [Example 106, trans-8-((4-((cyclobutylmethyl)(4-fluoro-2-methylphenyl)amino)cyclohexyl)(methyl)amino)-5-methyl-6-oxo-5,6-dihydro-1,5-naphthyridine-2,7-dicarbonitrile] | 100 to 1000 | 100 to 1000 |
| Cc1c(F)cccc1N(CC1CC1)[C@H]1CC[C@H](N(C)c2c(C#N)c(=O)n(C)c3ccc(C#N)nc23)CC1 [Example 107, trans-8-((4-((cyclopropylmethyl)(3-fluoro-2-methylphenyl)amino)cyclohexyl)(methyl)amino)-5-methyl-6-oxo-5,6-dihydro-1,5-naphthyridine-2,7-dicarbonitrile] | ≥ 1000 | 100 to 1000 |
| COc1cc(F)ccc1N(CC1CC1)[C@H]1CC[C@H](N(C)c2c(C#N)c(=O)n(C)c3ccc(Cl)nc23)CC1 [Example 108, trans-6-chloro-4-((-4-((cyclopropylmethyl)(4-fluoro-2-methoxyphenyl)amino)cyclohexyl)(methyl)amino)-1-methyl-2-oxo-1,2-dihydro-1,5-naphthyridine-3-carbonitrile] | 10 to 100 | 100 to 1000 |
| Cn1c(=O)c(C#N)c(N(C)[C@H]2CC[C@@H](N(CC3CCC3)c3cccc4c3OCO4)CC2)c2nc(C#N)ccc21 [Example 109, cis-8-((-4-(benzo[d][1,3]dioxol-4-yl(cyclobutylmethyl)amino)cyclohexyl)(methyl)amino)-5-methyl-6-oxo-5,6-dihydro-1,5-naphthyridine-2,7-dicarbonitrile] | 10 to 100 | 10 to 100 |
| Cn1c(=O)c(C#N)c(N(C)[C@H]2CC[C@@H](N(CC3CCC3)c3cccc4c3OCO4)CC2)c2nc(Cl)ccc21 [Example 110, cis-4-((-4-(benzo[d][1,3]dioxol-4-yl(cyclobutylmethyl)amino)cyclohexyl)(methyl)amino)-6-chloro-1-methyl-2-oxo-1,2-dihydro-1,5-naphthyridine-3-carbonitrile] | 10 to 100 | 100 to 1000 |
| Cn1c(=O)cc(N(C)[C@H]2CC[C@@H](N(CC3CCC3)c3cccc4c3OCO4)CC2)c2nc(C#N)ccc21 [Example 111, cis-8-((-4-(benzo[d][1,3]dioxol-4-yl(cyclobutylmethyl)amino)cyclohexyl)(methyl)amino)-5-methyl-6-oxo-5,6-dihydro-1,5-naphthyridine-2-carbonitrile] | 100 to 1000 | 100 to 1000 |
| Cn1c(=O)c(C#N)c(N(C)[C@H]2CC[C@H](N(CC3CCC3)c3cccc4c3OCO4)CC2)c2nc(C#N)ccc21 [Example 112, trans-8-((-4-(benzo[d][1,3]dioxol-4-yl(cyclobutylmethyl)amino)cyclohexyl)(methyl)amino)-5-methyl-6-oxo-5,6-dihydro-1,5-naphthyridine-2,7-dicarbonitrile] | 10 to 100 | 100 to 1000 |
| Cc1cc(F)cc(N(CC2CCC2)[C@H]2CC[C@@H](N(C)c3c(C#N)c(=O)n(C)c4ccc(C#N)nc34)CC2)c1 [Example 113, cis-8-((-4-((cyclobutylmethyl)(3-fluoro-5-methylphenyl)amino)cyclohexyl)(methyl)amino)-5-methyl-6-oxo-5,6-dihydro-1,5-naphthyridine-2,7-dicarbonitrile] | 10 to 100 | 10 to 100 |
| Cc1cc(F)cc(N(CC2CCC2)[C@H]2CC[C@@H](N(C)c3cc(=O)n(C)c4ccc(C#N)nc34)CC2)c1 [Example 114, cis-8-((-4-((cyclobutylmethyl)(3-fluoro-5-methylphenyl)amino)cyclohexyl)(methyl)amino)-5-methyl-6-oxo-5,6-dihydro-1,5-naphthyridine-2-carbonitrile] | 10 to 100 | ≥ 1000 |
| COc1cc(N(CC2CC2)[C@H]2CC[C@H](N(C)c3c(C#N)c(=O)n(C)c4ccc(C#N)nc34)CC2)cc(OC)c1F [Example 115, trans-8-((-4-((cyclopropylmethyl)(4-fluoro-3,5-dimethoxyphenyl)amino)cyclohexyl)(methyl)amino)-5-methyl-6-oxo-5,6-dihydro-1,5-naphthyridine-2,7-dicarbonitrile] | 100 to 1000 | 100 to 1000 |
| Cn1c(=O)c(C#N)c(N(C)[C@H]2CC[C@@H](N(CC3CCCOC3)c3ccc4c(c3)OCO4)CC2)c2nc(C#N)ccc21 (stereo partly drawn) [Example 116, cis-8-((-4-(benzo[d][1,3]dioxol-5-yl((tetrahydro-2H-pyran-3-yl)methyl)amino)cyclohexyl)(methyl)amino)-5-methyl-6-oxo-5,6-dihydro-1,5-naphthyridine-2,7-dicarbonitrile] | < 10 | 10 to 100 |
| Cc1ccc(F)cc1N(CC1CC1)[C@H]1CC[C@H](N(C)c2c(C#N)c(=O)n(C)c3ccc(C#N)nc23)CC1 [Example 117, trans-8-((4-((cyclopropylmethyl)(5-fluoro-2-methylphenyl)amino)cyclohexyl)(methyl)amino)-5-methyl-6-oxo-5,6-dihydro-1,5-naphthyridine-2,7-dicarbonitrile] | ≥ 1000 | 10 to 100 |
| Cc1ccc(F)cc1N(CC1CC1)[C@H]1CC[C@H](N(C)c2c(C#N)c(=O)n(C)c3ccc(Cl)nc23)CC1 [Example 118, trans-6-chloro-4-((4-((cyclopropylmethyl)(5-fluoro-2-methylphenyl)amino)cyclohexyl)(methyl)amino)-1-methyl-2-oxo-1,2-dihydro-1,5-naphthyridine-3-carbonitrile] | ≥ 1000 | 100 to 1000 |
| Cc1cc(F)ccc1N(CC1CC1)[C@H]1CC[C@@H](N(C)c2c(C#N)c(=O)n(C)c3ccc(C#N)nc23)CC1 [Example 119, cis-8-((4-((cyclopropylmethyl)(4-fluoro-2-methylphenyl)amino)cyclohexyl)(methyl)amino)-5-methyl-6-oxo-5,6-dihydro-1,5-naphthyridine-2,7-dicarbonitrile] | ≥ 1000 | 10 to 100 |
| COc1cc(F)ccc1N(CC1CCC1)[C@H]1CC[C@H](N(C)c2c(C#N)c(=O)n(C)c3ccc(C#N)nc23)CC1 [Example 120, trans-8-((-4-((cyclobutylmethyl)(4-fluoro-2-methoxyphenyl)amino)cyclohexyl)(methyl)amino)-5-methyl-6-oxo-5,6-dihydro-1,5-naphthyridine-2,7-dicarbonitrile] | 100 to 1000 | 10 to 100 |
| Cn1c(=O)c(C#N)c(N(C)[C@H]2CC[C@@H](N(CC3CCC3)c3ccc4c(c3)OC(F)(F)O4)CC2)c2nc(C#N)ccc21 [Example 121, cis-8-((-4-((cyclobutylmethyl)(2,2-difluorobenzo[d] [1,3]dioxol-5-yl)amino)cyclohexyl)(methyl)amino)-5-methyl-6-oxo-5,6-dihydro-1,5-naphthyridine-2,7-dicarbonitrile] | 10 to 100 | 10 to 100 |
| Cn1c(=O)cc(N(C)[C@H]2CC[C@@H](N(CC3CC3)c3ccc(F)c(OC4CC4)c3)CC2)c2nc(C#N)ccc21 [Example 122, cis-8-((-4-((3-cyclopropoxy-4-fluorophenyl) (cyclopropylmethyl)amino)cyclohexyl)(methyl)amino)-5-methyl-6-oxo-5,6-dihydro-1,5-naphthyridine-2-carbonitrile] | 100 to 1000 | 100 to 1000 |
| Cn1c(=O)c(C#N)c(N(C)[C@H]2CC[C@@H](N(CC3CC3)c3ccc(F)c(OC4CC4)c3)CC2)c2nc(C#N)ccc21 [Example 123, cis-8-((-4-((3-cyclopropoxy-4-fluorophenyl) (cyclopropylmethyl)amino)cyclohexyl)(methyl)amino)-5-methyl-6-oxo-5,6-dihydro-1,5-naphthyridine-2,7-dicarbonitrile] | 10 to 100 | 10 to 100 |
